# Reference: patent US9394520B2, “Expansion of hematopoietic stem cells” (University of Rochester, priority 2006, dated 2016)
# Key:
# ST-HSC = assay: Competitive repopulation in lethally irradiated recipients; type: in vivo, mice; details: donor CD45.2 to competitor CD45.1 1:2, effect limited to short-term (up to 6 weeks)
# Description: FIGS. 11A, 11B and 11C are graphs showing engraftment data from peripheral blood from competitive repopulation analysis from CD45.2+c57bl/6 mice treated daily with PGE2 (6 mg/kg i.p. twice daily) (n=8 mice per treatment group, n=10 recipient mice per group, 2 experiments).
# This effect was limited to the short-term (up to 6 weeks) (FIGS. 11A, 11B and 11C), illustrating specific ST-HSC expansion. This is a unique in vivo model of selective ST-HSC increase. This effect is best illustrated by the short lived CD11b+myeloid subset (FIGS. 11A, 11B and 11C).
# [1] = tested on: intermediate progenitors of hematopoietic stem cells; assay: Colony forming unit-cell (CFU-C) assay of bone marrow mononuclear cells from treated mice; type: in vivo
# Description: FIG. 8 is a graph showing that intermediate progenitors of hematopoietic stem cells are not increased by PGE2 treatment. Therefore, PGE2 specifically increases HSCs. The bone marrow mononuclear cells from mice treated with vehicle and PGE2 using colony forming unit-cell (CF-C) activity in vitro. […] Peripheral white blood cell and hematocrit levels were not changed in PGE2 vs. vehicle treated mice at 16 days (WBC counts: vehicle averaged 5.75±0.20×10^3/μl; PGE2 averaged 4.72±0.61×10^3/μl) (Hematocrit: vehicle averaged 42±1%; PGE2 averaged 43±2%) (n=6 for each treatment group).
# FIG. 8 is a graph showing that intermediate progenitors of hematopoietic stem cells are not increased by PGE2 treatment. Therefore, PGE2 specifically increases HSCs. The bone marrow mononuclear cells from mice were treated with vehicle and PGE2 to determine if there was an increase in intermediate progenitors in response to PGE2 using the colony forming unit-cell (CFU-C) assay. […] In addition, peripheral white blood cell and hematocrit levels were not changed in PGE2 vs. vehicle treated mice at 16 days (WBC counts: vehicle averaged 5.75±0.20×10^3/μl; PGE2 averaged 4.72±0.61×10^3/μl) (Hematocrit: vehicle averaged 42±1%; PGE2 averaged 43±2%) (n=6 for each treatment group).
# The opposite limb of the same mice was used for flow cytometric analysis, in vitro progenitor CFU-C assays and competitive repopulation. […]
# Jagged1 = Jagged1 mRNA by real time RT-PCR in UMR106 cells; type: cell-based; details: UMR106 cells, PGE2 10^−7 M, at 2 hours, corrected for beta-actin
# Description: UMR 106 cells were serum starved for 24 hours and then treated with a single dose of vehicle (controls) or PGE2 at a concentration of 10^-7 M. RNA was collected from both control and treated samples to assess the fold change in Jagged1 mRNA by real time RT-PCR analysis corrected for by beta-actin. FIG. 1B is a Western blot showing total protein that was collected from both control and treated samples exposed to Jagged1 antibody, C20. Positive control (+ctr) was provided by HS27a cells, a human stromal cell line with high levels of Jagged1 protein, while HS5 cells from a human stromal cell line with minimal Jagged1 levels were used as a negative control. […] UMR106 cells were serum starved for 24 hours. They were pre-treated with H89 for 30 minutes followed by a single dose of PGE2 at 10^-7 M or vehicle. RNA was collected from both control and treated samples to assess the fold change in Jagged1 RNA by real time RT-PCR analysis corrected for by β-actin. […] UMR106 cells were serum starved for 24 hours. […] Total protein was collected from both PGE2 and vehicle treated samples for Western blot analysis with Jagged1 antibody C-20. UMR106 cells were grown in DMEM supplemented with 1.5 g/l sodium bicarbonate, 10% FBS, penicillin (100 U/ml), streptomycin (100 U/ml). After three days of growth the cells were 80% confluent and media was replaced with serum-free media. After 24 hr in serum-free media, PGE2 was added in noted concentrations. UMR 106 cells were treated with the Protein Kinase A (PKA) inhibitors H89 (0.5 hr prior to PGE2 treatment), and myristoylated PKI (0.5 hr prior to PGE2 treatment). […] At the designated times, total RNA and protein were harvested. Total RNA was extracted and analyzed by real time RT-PCR, normalizing for β-actin expression and t=0. Total protein was analyzed by Western blots performed using the […] system (Invitrogen, Carlsbad, Calif.). Blots were probed with Jag1 c-20 antibody (Santa Cruz Biotechnology, Inc., Santa Cruz, Calif.), and the loading control was B-actin.
structure (smiles),measurement,setting,value
"CCCCC[C@H](O)/C=C/[C@H]1[C@H](O)CC(=O)[C@@H]1C/C=C\CCCC(=O)O [PGE2, Prostaglandin E2]",multilineage reconstitution by donor cells from treated mice,ST-HSC,superior multilineage reconstitution
same,CFU-C frequency,"[1]; BMMC from C57Bl/6 mice treated 16 days, Example 2",No evidence of PGE2 effects
same,CFU-C frequency,"[1]; BMMC from treated mice, Example 1",did not increase
same,Jagged1 mRNA increase compared to vehicle,Jagged1,up to 5 fold
